Experimental data published in patent US10004701B2, “Methods and compositions for treating infection” (UNIVERSITY OF ROCHESTER, priority 2012, dated 2018).
Where a name gives a salt, the structure may show the parent alone. Read-outs that look alike come from different tables or passages of the source.

Key:
Assay in all cases: AK assay 384-well format, Prestwick library screening
E. faecium = assay type: cell-based, Enterococcus faecium; settings: 50 μM final drug concentration; for fold induction at 50 µM: Enterococcus faecium, 3 h
[1] = system: S. aureus strain USA300-0114; assay type: cell-based, Staphylococcus aureus; settings: 50 μM final drug concentration; for fold induction at 50 µM: Staphylococcus aureus, USA300, 3 h
K. pneumoniae = assay type: cell-based, Klebsiella pneumoniae; settings: 50 μM final drug concentration; for fold induction at 50 µM: Klebsiella pneumoniae, 3 h
[2] = system: A. baumannii strain 98-37-09; assay type: cell-based, Acinetobacter baumannii; settings: 50 μM final drug concentration; for fold induction at 50 µM: Acinetobacter baumannii, 983709, 3 h
P. aeruginosa = assay type: cell-based, Pseudomonas aeruginosa; settings: 50 μM final drug concentration; for fold induction at 50 µM: Pseudomonas aeruginosa, 3 h
E. cloacae = assay type: cell-based, Enterobacter cloacae; settings: 50 μM final drug concentration; for fold induction at 50 µM: Enterobacter cloacae, 3 h
E. coli = assay type: cell-based, Escherichia coli; settings: 50 μM final drug concentration; for fold induction at 50 µM: Escherichia coli, 3 h
[3] = planktonic, cutoff for positive-scoring molecules 3-fold increase, read-out: AK-based Prestwick Library Screening Results, E. faecium (fold increase in extracellular AK activity)
[4] = planktonic, cutoff for positive-scoring molecules 3-fold increase, read-out: AK-based Prestwick Library Screening Results, S. aureus (fold increase in extracellular AK activity)
[5] = planktonic, cutoff for positive-scoring molecules 3-fold increase, read-out: AK-based Prestwick Library Screening Results, K. pneumoniae (fold increase in extracellular AK activity)
[6] = planktonic, cutoff for positive-scoring molecules 3-fold increase, read-out: AK-based Prestwick Library Screening Results, A. baumannii (fold increase in extracellular AK activity)
[7] = planktonic, cutoff for positive-scoring molecules 3-fold increase, read-out: AK-based Prestwick Library Screening Results, P. aeruginosa (fold increase in extracellular AK activity)
[8] = planktonic, cutoff for positive-scoring molecules 3-fold increase, read-out: AK-based Prestwick Library Screening Results, E. cloacae (fold increase in extracellular AK activity)
[9] = planktonic, cutoff for positive-scoring molecules 3-fold increase, read-out: AK-based Prestwick Library Screening Results, E. coli (fold increase in extracellular AK activity)
[10] = 384-well format, cutoff for positive-scoring molecules 3-fold increase, read-out: AK-based Prestwick Library Screening Results, E. faecium (increase in extracellular AK activity)
[11] = 384-well format, cutoff for positive-scoring molecules 3-fold increase, read-out: AK-based Prestwick Library Screening Results, S. aureus (increase in extracellular AK activity)
[12] = 384-well format, cutoff for positive-scoring molecules 3-fold increase, read-out: AK-based Prestwick Library Screening Results, K. pneumoniae (increase in extracellular AK activity)
[13] = 384-well format, cutoff for positive-scoring molecules 3-fold increase, read-out: AK-based Prestwick Library Screening Results, A. baumannii (increase in extracellular AK activity)
[14] = 384-well format, cutoff for positive-scoring molecules 3-fold increase, read-out: AK-based Prestwick Library Screening Results, P. aeruginosa (increase in extracellular AK activity)
[15] = 384-well format, cutoff for positive-scoring molecules 3-fold increase, read-out: AK-based Prestwick Library Screening Results, E. cloacae (increase in extracellular AK activity)
[16] = 384-well format, cutoff for positive-scoring molecules 3-fold increase, read-out: AK-based Prestwick Library Screening Results, E. coli (increase in extracellular AK activity)

Question: How did the “AK-based Prestwick Library Screening Results, E. faecium (increase in extracellular AK activity)” value (E. faecium; planktonic E. faecium, cutoff for positive-scoring molecules 3-fold increase) turn out when `C[C@]12CC[C@@H]3c4ccc(O)cc4CC[C@H]3[C@@H]1CC[C@@H]2O` [Estradiol-17 beta] was run?
Answer: 0.9

Question: What about the “AK-based Prestwick Library Screening Results, S. aureus (increase in extracellular AK activity)” value ([1]; planktonic S. aureus, cutoff for positive-scoring molecules 3-fold increase) of the same compound?
Answer: 0.8

Question: And the “AK-based Prestwick Library Screening Results, K. pneumoniae (increase in extracellular AK activity)” value (K. pneumoniae; planktonic K. pneumoniae, cutoff for positive-scoring molecules 3-fold increase)?
Answer: 0.8

Question: What about the “AK-based Prestwick Library Screening Results, A. baumannii (increase in extracellular AK activity)” value ([2]; planktonic A. baumannii, cutoff for positive-scoring molecules 3-fold increase) of the same compound?
Answer: 0.8

Question: And the “AK-based Prestwick Library Screening Results, P. aeruginosa (increase in extracellular AK activity)” value (P. aeruginosa; planktonic P. aeruginosa, cutoff for positive-scoring molecules 3-fold increase)?
Answer: 1.0

Question: And the “AK-based Prestwick Library Screening Results, E. cloacae (increase in extracellular AK activity)” value (E. cloacae; planktonic E. cloacae, cutoff for positive-scoring molecules 3-fold increase)?
Answer: 1.3

Question: And the “AK-based Prestwick Library Screening Results, E. coli (increase in extracellular AK activity)” value (E. coli; planktonic E. coli, cutoff for positive-scoring molecules 3-fold increase)?
Answer: 1.1

Question: How did the fold induction at 50 µM (E. faecium; planktonic E. faecium, positive cutoff 3-fold increase, read-out: AK-based Prestwick library screening result, E. faecium (fold increase in extracellular AK activity)) turn out when `C[C@]12CC[C@@H]3c4ccc(O)cc4CC[C@H]3[C@@H]1C[C@@H](O)[C@@H]2O` [Estriol] was run?
Answer: 1.1

Question: And the fold induction at 50 µM ([1]; planktonic S. aureus, positive cutoff 3-fold increase, read-out: AK-based Prestwick library screening result, S. aureus (fold increase in extracellular AK activity))?
Answer: 1.2

Question: What about the fold induction at 50 µM (K. pneumoniae; planktonic K. pneumoniae, positive cutoff 3-fold increase, read-out: AK-based Prestwick library screening result, K. pneumoniae (fold increase in extracellular AK activity)) of the same compound?
Answer: 0.8

Question: And the fold induction at 50 µM ([2]; planktonic A. baumannii, positive cutoff 3-fold increase, read-out: AK-based Prestwick library screening result, A. baumannii (fold increase in extracellular AK activity))?
Answer: 1.2

Question: And the fold induction at 50 µM (P. aeruginosa; planktonic P. aeruginosa, positive cutoff 3-fold increase, read-out: AK-based Prestwick library screening result, P. aeruginosa (fold increase in extracellular AK activity))?
Answer: 1

Question: And the fold induction at 50 µM (E. cloacae; planktonic E. cloacae, positive cutoff 3-fold increase, read-out: AK-based Prestwick library screening result, E. cloacae (fold increase in extracellular AK activity))?
Answer: 1.4

Question: What about the fold induction at 50 µM (E. coli; planktonic E. coli, positive cutoff 3-fold increase, read-out: AK-based Prestwick library screening result, E. coli (fold increase in extracellular AK activity)) of the same compound?
Answer: 1.1

Question: For `C[C@]12CC[C@@H]3c4ccc(O)cc4CC[C@H]3[C@@H]1CCC2=O` [Estrone], which fold induction at 50 µM (E. faecium; [3]) is on record?
Answer: 0.8

Question: What about the fold induction at 50 µM [1, 4] of the same compound?
Answer: 0.7

Question: What about the fold induction at 50 µM (K. pneumoniae; [5]) of the same compound?
Answer: 0.7

Question: What about the fold induction at 50 µM [2, 6] of the same compound?
Answer: 0.8

Question: And the fold induction at 50 µM (P. aeruginosa; [7])?
Answer: 0.8

Question: And the fold induction at 50 µM (E. cloacae; [8])?
Answer: 1.4

Question: And the fold induction at 50 µM (E. coli; [9])?
Answer: 0.8

Question: What does the source list for `C[C@]12CC[C@@H]3c4ccc(OS(=O)(=O)O)cc4CC[C@H]3[C@@H]1CCC2=O` [Estropipate]?
Answer: fold induction at 50 µM (E. faecium; [3]): 1; fold induction at 50 µM [1, 4]: 1.1; fold induction at 50 µM (K. pneumoniae; [5]): 1; fold induction at 50 µM [2, 6]: 1; fold induction at 50 µM (P. aeruginosa; [7]): 1.1; fold induction at 50 µM (E. cloacae; [8]): 1.3; fold induction at 50 µM (E. coli; [9]): 1.1

Question: With `O=C(Cn1ccnc1[N+](=O)[O-])NCCO` [Etanidazole] as the compound, how does the fold induction at 50 µM (E. faecium; [3]) read?
Answer: 0.8

Question: What about the fold induction at 50 µM [1, 4] of the same compound?
Answer: 0.4

Question: What about the fold induction at 50 µM (K. pneumoniae; [5]) of the same compound?
Answer: 0.5

Question: And the fold induction at 50 µM [2, 6]?
Answer: 0.5

Question: What about the fold induction at 50 µM (P. aeruginosa; [7]) of the same compound?
Answer: 0.4

Question: And the fold induction at 50 µM (E. cloacae; [8])?
Answer: 0.4

Question: And the fold induction at 50 µM (E. coli; [9])?
Answer: 0.5

Question: `C=C(CC)C(=O)c1ccc(OCC(=O)O)c(Cl)c1Cl` [Ethacrynic acid] was tested. Which fold induction at 50 µM (E. faecium; [10]) did it give?
Answer: 1.3

Question: And the fold induction at 50 µM [1, 11]?
Answer: 1.4

Question: What about the fold induction at 50 µM (K. pneumoniae; [12]) of the same compound?
Answer: 0.6

Question: And the fold induction at 50 µM [2, 13]?
Answer: 0.8

Question: And the fold induction at 50 µM (P. aeruginosa; [14])?
Answer: 0.7

Question: And the fold induction at 50 µM (E. cloacae; [15])?
Answer: 0.8

Question: What about the fold induction at 50 µM (E. coli; [16]) of the same compound?
Answer: 0.7

Question: What does the source list for `CC[C@@H](CO)NCCN[C@@H](CC)CO` [Ethambutol dihydrochloride]?
Answer: fold induction at 50 µM (E. faecium; [10]): 0.9; fold induction at 50 µM [1, 11]: 0.6; fold induction at 50 µM (K. pneumoniae; [12]): 0.7; fold induction at 50 µM [2, 13]: 0.8; fold induction at 50 µM (P. aeruginosa; [14]): 0.7; fold induction at 50 µM (E. cloacae; [15]): 1.1; fold induction at 50 µM (E. coli; [16]): 0.9

Question: Which fold induction at 50 µM (E. faecium; planktonic E. faecium, cutoff for positive-scoring molecules 3-fold increase, read-out: AK-based Prestwick Library Screening Results, E. faecium (increase in extracellular AK activity)) does the source give for `CCN(CC)C(=O)c1ccc(O)c(OC)c1` [Ethamivan] here?
Answer: 1

Question: What about the fold induction at 50 µM ([1]; planktonic S. aureus, cutoff for positive-scoring molecules 3-fold increase, read-out: AK-based Prestwick Library Screening Results, S. aureus (increase in extracellular AK activity)) of the same compound?
Answer: 0.6

Question: And the fold induction at 50 µM (K. pneumoniae; planktonic K. pneumoniae, cutoff for positive-scoring molecules 3-fold increase, read-out: AK-based Prestwick Library Screening Results, K. pneumoniae (increase in extracellular AK activity))?
Answer: 0.6

Question: And the fold induction at 50 µM ([2]; planktonic A. baumannii, cutoff for positive-scoring molecules 3-fold increase, read-out: AK-based Prestwick Library Screening Results, A. baumannii (increase in extracellular AK activity))?
Answer: 0.9

Question: What about the fold induction at 50 µM (P. aeruginosa; planktonic P. aeruginosa, cutoff for positive-scoring molecules 3-fold increase, read-out: AK-based Prestwick Library Screening Results, P. aeruginosa (increase in extracellular AK activity)) of the same compound?
Answer: 0.6

Question: What about the fold induction at 50 µM (E. cloacae; planktonic E. cloacae, cutoff for positive-scoring molecules 3-fold increase, read-out: AK-based Prestwick Library Screening Results, E. cloacae (increase in extracellular AK activity)) of the same compound?
Answer: 0.9

Question: What about the fold induction at 50 µM (E. coli; planktonic E. coli, cutoff for positive-scoring molecules 3-fold increase, read-out: AK-based Prestwick Library Screening Results, E. coli (increase in extracellular AK activity)) of the same compound?
Answer: 0.6

Question: How did the fold induction at 50 µM (E. faecium; planktonic E. faecium, […], read-out: AK-based Prestwick library screening result, E. faecium (fold increase in extracellular AK activity)) turn out when `O=S(=O)(O)c1cc(O)ccc1O` [Ethamsylate] was run?
Answer: 0.9

Question: And the fold induction at 50 µM ([1]; planktonic S. aureus, […], read-out: AK-based Prestwick library screening result, S. aureus (fold increase in extracellular AK activity))?
Answer: 1

Question: What about the fold induction at 50 µM (K. pneumoniae; planktonic K. pneumoniae, […], read-out: AK-based Prestwick library screening result, K. pneumoniae (fold increase in extracellular AK activity)) of the same compound?
Answer: 1.1

Question: And the fold induction at 50 µM ([2]; planktonic A. baumannii, […], read-out: AK-based Prestwick library screening result, A. baumannii (fold increase in extracellular AK activity))?
Answer: 1.2

Question: What about the fold induction at 50 µM (P. aeruginosa; planktonic P. aeruginosa, […], read-out: AK-based Prestwick library screening result, P. aeruginosa (fold increase in extracellular AK activity)) of the same compound?
Answer: 1

Question: What about the fold induction at 50 µM (E. cloacae; planktonic E. cloacae, […], read-out: AK-based Prestwick library screening result, E. cloacae (fold increase in extracellular AK activity)) of the same compound?
Answer: 0.8

Question: And the fold induction at 50 µM (E. coli; planktonic E. coli, […], read-out: AK-based Prestwick library screening result, E. coli (fold increase in extracellular AK activity))?
Answer: 1.2

Question: What does the source list for `CCOc1ccc(Cc2nccc3cc(OCC)c(OCC)cc23)cc1OCC` [Ethaverine hydrochloride]?
Answer: fold induction at 50 µM (E. faecium; [3]): 1; fold induction at 50 µM [1, 4]: 0.5; fold induction at 50 µM (K. pneumoniae; [5]): 0.7; fold induction at 50 µM [2, 6]: 0.9; fold induction at 50 µM (P. aeruginosa; [7]): 0.9; fold induction at 50 µM (E. cloacae; [8]): 1; fold induction at 50 µM (E. coli; [9]): 0.9
